Entries after “also recorded” stand apart in the source; their conditions may differ. Counter-ions that a name gives are not always drawn.
Legend:
human KOR = biological target: T1, human KOR (Homo sapiens, UniProt P41145); assay: biochemical; conditions: for Emax: read-out: Emax of decrease of basal GTPγS binding
T1 construct: expressed in transfected cells; membranes

mouse DOR [1] = biological target: T2, mouse DOR (Mus musculus, UniProt P32300)
human MOR [2] = biological target: T3, human MOR (Homo sapiens, UniProt P35372)
T3 sequence (P35372 whole entry): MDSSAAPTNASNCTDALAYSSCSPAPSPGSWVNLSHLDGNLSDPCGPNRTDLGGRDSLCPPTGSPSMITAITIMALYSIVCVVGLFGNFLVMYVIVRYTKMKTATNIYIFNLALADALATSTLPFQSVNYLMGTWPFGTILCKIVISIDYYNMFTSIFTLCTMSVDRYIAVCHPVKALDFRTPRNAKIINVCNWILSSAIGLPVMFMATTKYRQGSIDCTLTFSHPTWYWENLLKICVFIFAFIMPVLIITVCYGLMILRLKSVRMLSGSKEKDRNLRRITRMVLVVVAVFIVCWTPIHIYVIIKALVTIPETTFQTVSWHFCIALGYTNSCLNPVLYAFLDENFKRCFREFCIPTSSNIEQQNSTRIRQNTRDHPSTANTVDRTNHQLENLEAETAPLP

human MOR [3] = biological target: T3, human MOR; format: biochemical; design: expressed in transfected cells; membranes
mouse DOR [4] = biological target: T2, mouse DOR; assay: basal [35S]GTPγS binding in DOR cell membranes with or without agonist pretreatment; format: biochemical; design: expressed in transfected cells; membranes
animals = assay: precipitated withdrawal jumping in animals; format: in vivo; conditions: compared with naloxone

T1 sequence (P41145 whole entry): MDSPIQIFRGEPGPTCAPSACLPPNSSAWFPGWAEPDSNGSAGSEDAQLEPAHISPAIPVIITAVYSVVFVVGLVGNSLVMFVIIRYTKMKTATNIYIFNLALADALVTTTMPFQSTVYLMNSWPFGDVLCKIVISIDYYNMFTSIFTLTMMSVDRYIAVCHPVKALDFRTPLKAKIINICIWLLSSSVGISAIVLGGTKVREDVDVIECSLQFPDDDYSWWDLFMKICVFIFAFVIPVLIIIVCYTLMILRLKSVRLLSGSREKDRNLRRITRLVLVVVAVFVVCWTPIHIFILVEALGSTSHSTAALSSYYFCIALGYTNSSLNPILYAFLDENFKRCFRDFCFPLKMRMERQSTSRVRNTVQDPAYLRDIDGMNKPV
T2 sequence (P32300 whole entry): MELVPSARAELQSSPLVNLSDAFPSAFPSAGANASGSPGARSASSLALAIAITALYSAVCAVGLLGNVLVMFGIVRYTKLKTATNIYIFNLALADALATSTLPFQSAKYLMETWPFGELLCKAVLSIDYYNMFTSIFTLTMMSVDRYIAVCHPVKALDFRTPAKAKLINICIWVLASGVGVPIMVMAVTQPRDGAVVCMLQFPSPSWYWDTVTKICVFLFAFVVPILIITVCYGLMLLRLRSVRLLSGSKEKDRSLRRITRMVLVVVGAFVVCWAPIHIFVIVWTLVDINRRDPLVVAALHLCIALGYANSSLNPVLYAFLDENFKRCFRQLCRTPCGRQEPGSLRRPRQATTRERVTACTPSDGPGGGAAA

N=C(N)Nc1ccc2[nH]c3c(c2c1)CC1(O)C2Cc4ccc(O)c5c4C1(CCN2CC1CC1)C3O5 (stereo not drawn) [GNTI, 5′-guanidinyl-17-(cyclopropylmethyl)-6,7-dehydro-4,5α-epoxy-3,14-dihydroxy-6,7-2′3′-indolomorphinan dihydrochloride]
EC50 of decrease of basal GTPγS binding (human KOR): femtomolar range | change of inverse agonist effects after pretreatment (human KOR): increased | pharmacological property at KOR (human KOR): inverse agonists | Emax (human KOR): ~10%

[D-Pen2,D-Pen5]-enkephalin [DPDPE]
change of agonist Emax value after pretreatment (mouse DOR [1]): decreased

Oc1ccc2c3c1O[C@H]1c4[nH]c5c(c4C[C@@]4(O)[C@@H](C2)N(CC2CC2)CC[C@]314)C[C@@]1(O)[C@H]2Cc3ccc(O)c4c3[C@@]1(CCN2CC1CC1)[C@H]5O4 [nor-BNI, nor-binaltorphimine]
change of inverse agonist effects after pretreatment (human KOR): increased | pharmacological property at KOR (human KOR): inverse agonists | Emax (human KOR): ~10%

C[C@@H](NC(=O)[C@@H](N)Cc1ccc(O)cc1)C(=O)NCC(=O)N(C)[C@@H](Cc1ccccc1)C(=O)NCCO [DAMGO, [D-Ala2,N-Me-Phe4,Gly5-ol]-enkephalin]
change of agonist Emax value after pretreatment (human MOR [2]): decreased

O=C1C(=Cc2ccccc2)C[C@@]2(O)[C@H]3Cc4ccc(O)c5c4[C@@]2(CCN3CC2CC2)[C@H]1O5 [BNTX, 7-benzylidenenaltrexone]
change of inverse agonist effects after pretreatment (human MOR [3]): increased | shift of inverse agonist dose-response curve after pretreatment (human MOR [3]): shifted the dose-response curve of BNTX to the left

N,N-diallyl-Tyr-Aib-Aib-Phe-Leu-OH [ICI 174,864]
change of inverse agonist effects after pretreatment (mouse DOR [4]; DPDPE pre-exposure, DOR): decreased | change of inverse agonist Emax after pretreatment (mouse DOR [4]; morphine pretreatment, DOR): without affecting | shift of inverse agonist dose-response curve after pretreatment (mouse DOR [4]; morphine pretreatment, DOR): shifted the dose-response curve for ICI 174,864 to the left

Oc1ccc2c3c1O[C@H]1[C@H](O)CC[C@@]4(O)[C@@H](C2)N(CC2CC2)CC[C@]314 [6β-naltrexol]
precipitated withdrawal jumping (animals): less withdrawal jumping than naloxone | inhibition of the inverse agonist effect of naloxone (mouse DOR [4]; DPDPE-pretreated DOR membranes): inhibited | pharmacological property at DOR (mouse DOR [4]; after DPDPE or morphine pretreatment): neutral antagonist property; also recorded: remained neutral | antagonistic property against agonist-stimulated [35S]GTPγS binding (mouse DOR [1]; 30 nM DPDPE, DOR membranes): full antagonists

— patent US20110195433A1 (priority 2007, published 2011)
